As a reminder, the EC50 is the concentration at which the effect is half-maximal.

IC50 and EC50 data for 19 compounds are collected here from patent US20220153732A1, “PROTEIN SECRETION INHIBITORS” (KEZAR LIFE SCIENCES, priority 2019, published 2022).

Common to all, as to format: cell-based
In test [1] the test system is PD1-ss+10aa/Gaussia Luciferase. Nature of the test: Dox-Induced PD1-ss-Gluc Assay. The conditions noted are these: 293FRT/TO cells, read-out: 24 hr Dox Inducible PD1ssGluc 293FRT/TO: Mean IC50. An outline of the steps:
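Stable cell line carrying PD1-ss+10aa/Gaussia luciferase cDNA under T-REx (doxycycline-inducible) control, plated the day before assay. Compound dilutions in DMSO/media containing doxycycline added and incubated at 37° C, 5% CO2. Undefined stereocentres: data refer to stereoisomer mixtures.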

The test system of test [2] is human multiple myeloma cell line U266B1. Put plainly: U266 Cell Viability Assay. The conditions noted are these: U-266, 48 hr, U266B1 cells, Celltiter-Glo, read-out: 48 hr U266 Viability Celltiter-Glo: Mean EC50. An outline of the steps:
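U266B1 myeloma cells treated with compound dilutions in DMSO/media for 48 h at 37 °C, 5% CO2. Viability read by CellTiter-Glo luminescence. Stereochemically undefined structures were tested as stereoisomer mixtures.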

Test [3] deals with human multiple myeloma cell line NCI-H929. Nature of the test: H929 Cell Viability Assay. The conditions noted are these: 48 hr, NCI-H929 cells, Celltiter-Glo, read-out: 48 hr H929 Viability Celltiter-Glo: Mean EC50. The protocol: Plates were incubated at 37° C., 5% CO2 for 48 hours. After 48 hours, Celltiter-Glo® (Promega) was added to each well and luciferase signal was quantified using Tecan Infinite M1000 Pro for cell viability determination.
For chemical structures that include one or more stereoisomers, but are illustrated without indicating stereochemistry, the assay data refers to a mixture of stereoisomers.
A general note: In ATP-based viability assays light output follows the ATP content of the culture.

Test [4] has as its system IL-2-FL/Gaussia Luciferase. Nature of the test: Dox Induced IL2-FL-Gluc Assay. The conditions noted are these: 293FRT/TO cells, read-out: 24 hr Dox Inducible IL2FLGIuc 293FRT/TO: Mean IC50. In a few lines: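 Stable T-REx cell line expressing doxycycline-inducible IL-2-FL/Gaussia luciferase cDNA, plated the day before assay. Compound dilutions in DMSO/media containing doxycycline added and incubated at 37° C., 5% CO2. Unspecified stereochemistry means data refer to a stereoisomer mixture.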

Test [5] deals with TNFα-FL/Gaussia Luciferase. Put plainly: Dox Induced TNFα-FL-Gluc Assay. Particulars: 293FRT/TO cells, read-out: 24 hr Dox Inducible TNFaFLGluc 293FRT/TO: Mean IC50. An outline of the steps:
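A stable T-REx cell line carrying doxycycline-inducible TNFα-FL/Gaussia luciferase was plated the day before assay. Compound dilutions in DMSO/media containing doxycycline were then added and incubated at 37° C, 5% CO2.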

Test [6] concerns HER3-ss+4aa/Gaussia Luciferase. Nature of the test: Dox-Induced Her3-ss-Gluc Assay. Particulars: 293FRT/TO cells, read-out: 24 hr Dox Inducible Her3(ss + 4)Gluc 293FRT/TO: Mean IC50. An outline of the steps:
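Stable T-REx cell line carrying a doxycycline-regulated HER3-ss+4aa/Gaussia luciferase insert, plated the day before assay. Compound dilutions in DMSO/media with doxycycline added, then incubated at 37° C., 5% CO2. Stereoisomer mixtures tested where stereochemistry is not drawn.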

The mark [7] stands for this setting: 24 hr doxycycline induction, Gaussia luciferase signal.

The structures appear in SMILES notation. Like-named read-outs stand apart in the source and are kept apart here. Some results are limits rather than exact numbers.

Consider `CC(OC(C)(C)c1csc(NC(=O)c2cccn2Cc2ccncc2)n1)c1cccc(Cl)c1` (stereo not drawn) [Compound A2, N-(4-(2-(1-(3-chlorophenyl)ethoxy)propan-2-yl)thiazol-2-yl)-1-(pyridin-4-ylmethyl)-1H-pyrrole-2-carboxamide], for which the IC50 in test [1] (setting [7]) was 0.029 µM; in test [4] (setting [7]), 0.105 µM; in test [5] (setting [7]) it was 0.391 µM; in test [6] (setting [7]), 0.062 µM. For the same compound, the EC50 in test [2] was 22.3 µM; in test [3] it was 1.61 µM.
Take `CC(C)OC(C)(C)c1csc(NC(=O)c2cccn2Cc2ccncc2C(F)(F)F)n1` [Compound A214, N-(4-(2-isopropoxypropan-2-yl)thiazol-2-yl)-1-((3-(trifluoromethyl)pyridin-4-yl)methyl)-1H-pyrrole-2-carboxamide]: the IC50 in test [1] (setting [7]) is 4.55 µM; in test [4] (setting [7]), 6.45 µM; in test [5] (setting [7]), greater than 25 µM; in test [6] (setting [7]), 6.7 µM. The EC50 in test [2] and in test [3] was greater than 25 µM in each case.
As to `O=C(Nc1nc(/C=C/C2=CCCCC2)cs1)c1cccn1Cc1ccncc1` [Compound A244, N-(4-(2-(cyclohex-1-en-1-yl)vinyl)thiazol-2-yl)-1-(pyridin-4-ylmethyl)-1H-pyrrole-2-carboxamide], the IC50 in test [1] (setting [7]) was determined as 0.081 µM; in test [4] (setting [7]), 0.648 µM; in test [5] (setting [7]) it was 1.43 µM; in test [6] (setting [7]), 0.225 µM. The EC50 in test [2] turned out to be 17.4 µM; in test [3], 17.7 µM.
Take `CC(C)(C)c1csc(NC(=O)c2cccn2Cc2ccccc2Cl)n1` [Compound B11, N-(4-(tert-butyl)thiazol-2-yl)-1-(2-chlorobenzyl)-1H-pyrrole-2-carboxamide]: the IC50 in test [1] (24 hr, doxycycline-induced) is 22.7 µM; in test [4] (24 hr, doxycycline-induced), greater than 25 µM; in test [5] (24 hr, doxycycline-induced), greater than 25 µM; in test [6] (24 hr, doxycycline-induced) it was 5.57 µM. In addition, the EC50 in test [2] and in test [3] was greater than 25 µM in each case.
For the compound `CC(C)OC(C)(C)c1csc(NC(=O)c2cc(CO)cn2Cc2ccncc2)n1` [Compound A113, 4-(hydroxymethyl)-N-(4-(2-isopropoxypropan-2-yl)thiazol-2-yl)-1-(pyridin-4-ylmethyl)-1H-pyrrole-2-carboxamide], the IC50 in test [1] (setting [7]), in test [4] (setting [7]), in test [5] (setting [7]) and in test [6] (setting [7]) was greater than 25 µM each time. Further, the EC50 in test [2] and in test [3] was greater than 25 µM each time.
For `O=C(Nc1nc(/C=C\c2ccccc2)cs1)c1cccn1Cc1ccncc1` [Compound A12, 1-(pyridin-4-ylmethyl)-N-(4-styrylthiazol-2-yl)-1H-pyrrole-2-carboxamide], the IC50 in test [1] (setting [7]) amounted to 0.139 µM; in test [4] (setting [7]) it was 0.566 µM; in test [5] (setting [7]), 1.76 µM; in test [6] (setting [7]) it was 0.338 µM. Further, the EC50 in test [2] is greater than 25 µM; in test [3], 18.6 µM.
As for `CC(C)(C)c1csc(NC(=O)c2cccn2Cc2ccncc2Cl)n1` [Compound A77, N-(4-(tert-butyl)thiazol-2-yl)-1-((3-chloropyridin-4-yl)methyl)-1H-pyrrole-2-carboxamide], the IC50 in test [1] (setting [7]) is 3.05 µM; in test [4] (setting [7]), 3.1 µM; in test [5] (setting [7]), greater than 25 µM; in test [6] (setting [7]) it was 4.68 µM. The EC50 is greater than 25 µM in test [2] and 25 µM in test [3].
For the compound `CCCc1cnc(NC(=O)c2cccn2Cc2ccncc2)s1` [Compound A62], the IC50 in test [1] (setting [7]) was 1.69 µM; in test [4] (setting [7]), 5.07 µM; in test [5] (setting [7]), greater than 25 µM; in test [6] (setting [7]), 4.3 µM. The EC50 in test [2] and in test [3] was greater than 25 µM in each case.
In the case of `O=C(Nc1nc(C#Cc2ccccc2)cs1)c1cccn1Cc1ccncc1` [Compound A132], the IC50 in test [1] (setting [7]) was 0.15 µM; in test [4] (setting [7]) it was 0.744 µM; in test [5] (setting [7]), 1.21 µM; in test [6] (setting [7]) it was 0.417 µM. Moreover, the values for the EC50 in test [2] and in test [3] were 9.34 µM and 8.85 µM, respectively.
For `Cc1csc(NC(=O)c2cccn2Cc2ccncc2)n1` [Compound A63, N-(4-methylthiazol-2-yl)-1-(pyridin-4-ylmethyl)-1H-pyrrole-2-carboxamide], the IC50 in test [1] (setting [7]) is 1.72 µM; in test [4] (setting [7]), greater than 25 µM; in test [5] (setting [7]), greater than 25 µM; in test [6] (setting [7]) it was 10.6 µM. Moreover, the EC50 in test [2] and in test [3] was greater than 25 µM in each case.
In the case of `O=C(Nc1nc(/C=C/c2ccc(N3CCCCC3)cc2)cs1)c1cccn1Cc1ccncc1` [Compound A233], the IC50 in test [1] (setting [7]) is 0.056 µM; in test [4] (setting [7]), 0.633 µM; in test [5] (setting [7]) it was 2.22 µM; in test [6] (setting [7]), 0.304 µM. The EC50 in test [2] is greater than 25 µM; in test [3] it was 5.79 µM.
On to `O=C(Nc1nc2c(s1)CCCC2)c1cccn1Cc1ccncc1` [Compound A52], for which the IC50 in test [1] (setting [7]) was 1.36 µM; in test [4] (setting [7]), 1.95 µM; in test [5] (setting [7]), greater than 25 µM; in test [6] (setting [7]), 2.83 µM. Further, the EC50 in test [2] and in test [3] was greater than 25 µM throughout.
Take `Cc1ccn(Cc2ccncc2)c1C(=O)Nc1nc(C(C)(C)OC(C)C)cs1` [Compound A88, N-(4-(2-isopropoxypropan-2-yl)thiazol-2-yl)-3-methyl-1-(pyridin-4-ylmethyl)-1H-pyrrole-2-carboxamide]: the IC50 in test [1] (setting [7]) was 9.65 µM; in test [4] (setting [7]), greater than 25 µM; in test [5] (setting [7]) it was greater than 25 µM; in test [6] (setting [7]), greater than 25 µM. Also, the EC50 in test [2] and in test [3] was greater than 25 µM throughout.
In the case of `O=C(Nc1nc(C2[C@@H](O)CCN2c2ccccc2)cs1)c1cccn1Cc1ccncc1` (stereo partly drawn) [Compound A344], the IC50 in test [1] (24 hr, doxycycline-induced) amounted to 0.971 µM; in test [4] (24 hr, doxycycline-induced) it was 1.35 µM; in test [5] (24 hr, doxycycline-induced), 8.86 µM; in test [6] (24 hr, doxycycline-induced), 2.03 µM. Besides, the EC50 in test [2] and in test [3] was greater than 25 µM throughout.
For the compound `O=C(Nc1nc(/C=C/c2ccncc2)cs1)c1cccn1Cc1ccncc1` [Compound A166, N-(4-(2-(pyridin-4-yl)vinyl)thiazol-2-yl)-1-(pyridin-4-ylmethyl)-1H-pyrrole-2-carboxamide], the IC50 in test [1] (setting [7]) was 13.5 µM; in test [4] (setting [7]), greater than 25 µM; in test [5] (setting [7]) it was greater than 25 µM; in test [6] (setting [7]) it was greater than 25 µM. Further, the EC50 in test [2] and in test [3] was greater than 25 µM in each case.
For `COc1ccc(/C=C/c2csc(NC(=O)c3cccn3Cc3ccncc3)n2)cc1F` [Compound A240, N-(4-(3-fluoro-4-methoxystyryl)thiazol-2-yl)-1-(pyridin-4-ylmethyl)-1H-pyrrole-2-carboxamide], the IC50 in test [1] (setting [7]) came to 0.055 µM; in test [4] (setting [7]) it was 0.445 µM; in test [5] (setting [7]), 7.79 µM; in test [6] (setting [7]) it was 0.271 µM. The values for the EC50 in test [2] and in test [3] were greater than 25 µM and 11.8 µM, respectively.
Take `O=C(Nc1nc(/C=C/c2ccc(Cl)cc2)cs1)c1cccn1Cc1ccncc1` [Compound A163, N-(4-(4-chlorostyryl)thiazol-2-yl)-1-(pyridin-4-ylmethyl)-1H-pyrrole-2-carboxamide]: the IC50 in test [1] (setting [7]) came out at 0.059 µM; in test [4] (setting [7]) it was 0.652 µM; in test [5] (setting [7]) it was 2.47 µM; in test [6] (setting [7]) it was 0.305 µM. The figures for the EC50 in test [2] and in test [3] were 24.5 µM and 7.61 µM, respectively.
In the case of `O=C(Nc1nc(/C=C/c2ccc(C(F)(F)F)cn2)cs1)c1cccn1Cc1ccncc1` [Compound A343], the IC50 is 0.017 µM in test [1] (24 hr, doxycycline-induced); 1.15 µM in test [4] (24 hr, doxycycline-induced); 3.62 µM in test [5] (24 hr, doxycycline-induced); 0.492 µM in test [6] (24 hr, doxycycline-induced). Further, the EC50 in test [2] stood at 15.9 µM; in test [3], 7.18 µM.
As to `O=C(Nc1nc(N2CCCC(c3ccccc3)C2)cs1)c1cccn1Cc1ccncc1` (stereo not drawn) [Compound A265], the IC50 in test [1] (setting [7]) was 9.06 µM; in test [4] (setting [7]), 7.3 µM; in test [5] (setting [7]) it was greater than 25 µM; in test [6] (setting [7]), greater than 25 µM. The EC50 in test [2] and in test [3] was greater than 25 µM throughout.
